{"source": "patent US4515785A", "about": "“Neem bark extracts” (priority 1980, dated 1985)", "key": {"sarcoma 180 solid tumor": {"system": "sarcoma 180 solid tumor", "test": "Effects on sarcoma 180 solid tumor (Test V)", "format": "in vivo, mouse (ICR)", "conditions": "Table IV; for T/C (tumor weight ratio treated/control): 15th-21st day", "procedure": "Test materials were prepared in the same manner as in Test IV under (1).\nA cell suspension containing 1×10^8 cells per ml. was prepared in the same way as in Test IV under (2). Four week old-ICR mice was innoculated subcutaneously on the back with 0.1 ml. of the suspenstion by means of a syringe.\nAs in Test IV under (3), a group of 6 animals was used for each concentration of each test material.\nGrown tumor tissue was resected on the 15th-21st day of the tumor cell transplantation and weighed. An average for the group of 6 animals was taken for the evaluation. The effect was evaluated on the basis of ratio of the average weight for the treated animals to that of the control animals. […] Ratios (T/C) of 100-71% were rated ineffective (-), of 70-51% plus 1 (+), of 50-21% plus 2 (++), and of 20-0% plus 3 (+++)."}, "[1]": {"system": "sarcoma 180 ascites tumor", "test": "Effects on sarcoma 180 ascites tumor (Test IV)", "format": "in vivo, mouse (ICR)", "conditions": "Table III; for T/C (TPCV ratio treated/control): 4 days, 7th day", "procedure": "A portion of each of the extraction fractions was suspended or dissolved in 0.5% suspension of carboxymethylcellulose (CMC) in a phosphate buffered saline solution (PBS commercially available from GIBCO Laboratories, containing ca. 9.5 mM phosphate) to a predetermined concentration.\nMouse sarcoma 180 tumor cells which have been subcultivated intraperitoneally in ICR mice were drawn from the mouse together with the ascites and diluted with physiological saline solution to a cell count of 10^8 per ml. The tumor cell suspension thus prepared was transplanted by means of a syringe intraperitoneally into 4 week-old male ICR mice at a dose of 0.1 ml. Consequently, the cell count transplanted per mouse was 1×10^7.\nThe test material as prepared above was intraperitoneally administered at a dose of 0.1 ml. per mouse for 4 days once a day from the next day of the transplantation of mouse sarcoma 180 tumor cells. A group of 6 mice was employed for each concentration of each test material. […] As a control was administered the CMC-containing PBS as described above only in the same way as above. The dose is expressed as weight per kg. bodyweight of mouse.\nOn the 7th day of transplantation of the tumor cells the bodyweight of each mouse was measured (X). Then, ascites was thoroughly drawn from the mouse, followed by measurement of the bodyweight (Y). X-Y is taken as the amount of ascites.\nThe drawn ascites was the introduced into a hematocrit tube and then centrifuged at 15,000 G for 5 minutes using a hematocrit rotor at a low temperature. There was thus made determination of the ascitocrit value, that is, proportion of the cells present in the ascites which corresponded to the hematocrit value in hematology. The value multiplied by volume of the ascites gives the volume of the cells present in the ascites. This is designated as total packed cell volume (TPCV).\nEffect on the tumor was rated ineffective (-) when the TPCV ratio of the treated to the control (T/C) was 100-66%, plus 1 (+) when it was 65-41%, plus 2 (++) when it was 40-11%, and plus 3 (+++) when it was 10-0%."}, "mouse L-5178Y cells": {"system": "mouse L-5178Y cells", "test": "Effects on mouse L-5178Y cells (Test III)", "format": "cell-based", "conditions": "2 days", "procedure": "A medium containing 1×10^5 cells/ml. was prepared using mouse L-5178Y cells cultivated on RPMI-1640 medium containing 10% fetal bovine serum for 3 days. The medium was placed in a 96-well U-type microplate in an amount of 50 μl. per well.\nA portion of the test material, which was one of the extracts according to the invention described in the above examples, was dissolved in the medium to a final concentration in the medium as shown in Table II below. The amount of the solution per well was 60 μl. The test material thus prepared was incubated in a carbon-dioxide incubator at 37° C. for 2 days. After completion of the incubation, the cells were collected and counted well by well, and the cell counts were compared with cell count of the control which contained no test material. The cell could of the control was approximately 8.6×10^5 /ml. For activity comparison's sake, the same test was done with mitomycin C (MMC) or bleomycin (BLM). In the table below, T/C represents the ratio of count of the cells treated with the test material to that with no test material added. ID50 is the concentration of the test material required for decreasing concentration of the cells to 1/2 that of the control.\nThe neem extracts produced in Examples 5-7 above were tested for effects on mouse L-5178Y cells, sarcoma 180 ascites and solid tumors according to the methods described in Tests II-IV."}}, "note": "Values joined by “and” are separate entries in the source; they are usually repeats but may differ in a detail not shown here. Equal entries are not always repeated. *1 amine or outer side, *2 acyl side, *3 side chain or, on linkers, in order; H or OH if unused. Where a SMILES comes first, the peptide text is derived from it. Bridges are numbered along the chain shown (N, C = ends). Roman numbers before positions name the chains, in order. [ ]: non-standard residue; d: D form. Actinocin(9to1) = Cc1c2oc3c(C)ccc(C(=O)[*:1])c3nc-2c(C(=O)[*:2])c(N)c1=O; NMeV = CN[C@H](C(=O)O)C(C)C; Sar = CNCC(=O)O"}
{"compound": "CO[C@@]12[C@H](COC(N)=O)C3=C(C(=O)C(C)=C(N)C3=O)N1C[C@@H]1N[C@@H]12", "note": "[MMC, mitomycin C]", "values": [{"measurement": "Rating", "setting": "sarcoma 180 solid tumor; 0.5 mg./kg.", "result": "- (Ratios (T/C) of 100-71% were rated ineffective (-))"}, {"measurement": "T/C (tumor weight ratio treated/control)", "setting": "sarcoma 180 solid tumor; 0.5 mg./kg.", "result": 71.0, "unit": "%"}, {"measurement": "T/C (tumor weight ratio treated/control)", "setting": "sarcoma 180 solid tumor; 1.5 mg./kg.", "result": "32.5% and 50.2%"}, {"measurement": "Rating", "setting": "[1]; 0.5 mg./kg.", "result": "+++ (plus 3 (+++) when it was 10-0%)"}, {"measurement": "T/C (TPCV ratio treated/control)", "setting": "[1]; 0.5 mg./kg. i.p. once a day", "result": 0, "unit": "%"}, {"measurement": "Rating", "setting": "[1]; 1.5 mg./kg.", "result": "+++ (plus 3 (+++) when it was 10-0%)"}, {"measurement": "T/C (TPCV ratio treated/control)", "setting": "[1]; 1.5 mg./kg. i.p. once a day", "result": 0, "unit": "%"}, {"measurement": "activity at 0.1 µg/mL", "setting": "mouse L-5178Y cells; Mus musculus, L5178Y, 48 h, 0.1 μg./ml., read-out: T/C (cell count treated / no test material)", "result": 47.9, "unit": "%"}, {"measurement": "activity at 0.3 µg/mL", "setting": "mouse L-5178Y cells; Mus musculus, L5178Y, 48 h, 0.3 μg./ml., read-out: T/C (cell count treated / no test material)", "result": 24.7, "unit": "%"}, {"measurement": "activity at 1 µg/mL", "setting": "mouse L-5178Y cells; Mus musculus, L5178Y, 48 h, 1.0 μg./ml., read-out: T/C (cell count treated / no test material)", "result": 13.4, "unit": "%"}, {"measurement": "IC50", "setting": "mouse L-5178Y cells; Mus musculus, L5178Y, 48 h, Table II, concentration decreasing cells to 1/2 of control, read-out: ID50 (the source's name)", "result": 0.09, "unit": "µg/mL"}]}
{"compound": "Cc1c2oc3c(C)ccc(C(=O)N[C@@H]4C(=O)N[C@H](C(C)C)C(=O)N5CCC[C@H]5C(=O)N(C)CC(=O)N(C)[C@@H](C(C)C)C(=O)O[C@@H]4C)c3nc-2c(C(=O)N[C@@H]2C(=O)N[C@H](C(C)C)C(=O)N3CCC[C@H]3C(=O)N(C)CC(=O)N(C)[C@@H](C(C)C)C(=O)O[C@@H]2C)c(N)c1=O", "note": "[ACD, actinomycin D] (I: T[dV]P[Sar][NMeV] / II: T[dV]P[Sar][NMeV]; ester I:1-I:C, II:1-II:C; linker I:N-II:N via Actinocin(9to1))", "values": [{"measurement": "Rating", "setting": "[1]; 0.1 mg./kg.", "result": "+++ (plus 3 (+++) when it was 10-0%)"}, {"measurement": "T/C (TPCV ratio treated/control)", "setting": "[1]; 0.1 mg./kg. i.p. once a day", "result": 0, "unit": "%"}]}
{"compound": "bleomycin [BLM]", "values": [{"measurement": "T/C (tumor weight ratio treated/control)", "setting": "sarcoma 180 solid tumor; 10 mg./kg.", "result": "43.5% and 52.3%"}, {"measurement": "Rating", "setting": "[1]; 10 mg./kg.", "result": "+++ (plus 3 (+++) when it was 10-0%)"}, {"measurement": "T/C (TPCV ratio treated/control)", "setting": "[1]; 10 mg./kg. i.p. once a day", "result": 0, "unit": "%"}, {"measurement": "T/C (cell count treated / no test material)", "setting": "mouse L-5178Y cells; 5 μg./ml.", "result": 57.1, "unit": "%"}, {"measurement": "T/C (cell count treated / no test material)", "setting": "mouse L-5178Y cells; 10 μg./ml.", "result": 46.1, "unit": "%"}, {"measurement": "T/C (cell count treated / no test material)", "setting": "mouse L-5178Y cells; 100 μg./ml.", "result": 8.8, "unit": "%"}, {"measurement": "ID50", "setting": "mouse L-5178Y cells; Table II, concentration decreasing cells to 1/2 of control", "result": 7.8, "unit": "µg/mL"}]}
{"compound": "O=P1(N(CCCl)CCCl)NCCCO1", "note": "(centres unmarked) [CYP, cyclophosphamide]", "values": [{"measurement": "Rating", "setting": "sarcoma 180 solid tumor; 33 mg./kg.", "result": "+++ (of 20-0% plus 3 (+++))"}, {"measurement": "T/C (tumor weight ratio treated/control)", "setting": "sarcoma 180 solid tumor; 33 mg./kg.", "result": 0, "unit": "%"}, {"measurement": "Rating", "setting": "sarcoma 180 solid tumor; 67 mg./kg.", "result": "+++ (of 20-0% plus 3 (+++))"}, {"measurement": "T/C (tumor weight ratio treated/control)", "setting": "sarcoma 180 solid tumor; 67 mg./kg.", "result": 0, "unit": "%"}, {"measurement": "Rating", "setting": "[1]; 33 mg./kg.", "result": "+++ (plus 3 (+++) when it was 10-0%)"}, {"measurement": "T/C (TPCV ratio treated/control)", "setting": "[1]; 33 mg./kg. i.p. once a day", "result": 0, "unit": "%"}, {"measurement": "Rating", "setting": "[1]; 67 mg./kg.", "result": "+++ (plus 3 (+++) when it was 10-0%)"}, {"measurement": "T/C (TPCV ratio treated/control)", "setting": "[1]; 67 mg./kg. i.p. once a day", "result": 0, "unit": "%"}]}
{"compound": "O=c1[nH]cc(F)c(=O)[nH]1", "note": "[Example 5-Fu, 5-fluorouracil]", "values": [{"measurement": "Rating", "setting": "sarcoma 180 solid tumor; 20 mg./kg.", "result": "+ (of 70-51% plus 1 (+))"}, {"measurement": "T/C (tumor weight ratio treated/control)", "setting": "sarcoma 180 solid tumor; 20 mg./kg.", "result": 47.8, "unit": "%"}, {"measurement": "Rating", "setting": "[1]; 20 mg./kg.", "result": "+++ (plus 3 (+++) when it was 10-0%)"}, {"measurement": "T/C (TPCV ratio treated/control)", "setting": "[1]; 20 mg./kg. i.p. once a day", "result": 0, "unit": "%"}]}
